Results taken from US5478807A, “Use of relaxin in the treatment of bradycardia” (Genentech, Inc., priority 1992, dated 1995).
Where two headings read alike, the source gives them in different places.

Key:
rat isolated heart = assay: Chronotropy and inotropy in Langendorff rat isolated heart
Protocol: Male Sprague-Dawley rats weighing 300-350 g (Charles River, Portage, Ind., USA) were anesthetized with 60 mg/kg pentobarbital sodium (Fort Dodge Laboratories, Inc., Fort Dodge, Iowa, USA) intraperitoneally. Following thoracotomy, the hearts were removed and placed into 4° C. […] Any associated lung and thymic tissue were trimmed off and the ascending aorta cannulated. The heart was then perfused at 10 ml/min with Krebs-Henseleit solution at 37° C. The perfusion pressure was constantly monitored. A small incision was made in the left atrium and a water-filled balloon (Hugo Sachs Electronik, March-Hugstetten, Germany) connected to a pressure transducer (Gould Electronics, Valley View, Ohio, USA) was placed into the left ventricle for the measurement of left ventricular developed pressure (LVDP). From this pressure, recording heart rate was electronically derived on a Grass polygraph (Quincy, Mass., USA).
In six experiments, after a 15-20 minutes stabilization period, the atria were removed. The heart rate was then allowed to stabilize at its new rate before the administration of relaxin. In three experiments, the atria were left intact.
Relaxin was administered as 50 μl bolus injections into the perfusion fluid immediately prior to entering the heart. Cumulative dose-response curves were constructed using human recombinant H2 relaxin (Genentech, Inc. South San Francisco, Calif., USA). […] Serial dilutions of both drugs were made using 0.9% (w/v) saline solution.
Statistical significance was determined by a two-tailed Student's unpaired t-test and P<0.005 was taken as significant.

[1] = tested on: relaxin receptors in the rat heart; assay: Effect of steroid hormones on relaxin receptors in the rat heart; format: in vivo; conditions: steroid treatment 10 μg s.c.; sacrificed 7 days later
Protocol: For hormonal control experiments, 10-11-week-old female rats were ovariectomized for two weeks and then injected s.c. with 10 μg estradiol cyclopentyl propionate in a […] vehicle or with vehicle alone. Likewise, 10-11-week-old male rats were castrated for 2 weeks and were injected with either 10 μg estradiol cyclopentyl propionate, 10 μg testosterone, or vehicle alone. The rats were sacrificed 7 days later by asphyxiation with CO2. The relevant tissues were removed rapidly and frozen in powdered dry ice immediately.
The frozen tissues were sectioned to 16 μm thickness using a Reichert-Jung Model 2800 Frigocut cryostat (Cambridge Instruments). Tissue sections were fixed onto gelatin/chromium potassium sulfate treated microscope slides by warming, and immediately refrozen and stored at -80° C. overnight or longer.
For binding of ^32 P-relaxin to the tissue sections, frozen slides were prewashed with binding buffer (Hank's balanced salt solution supplemented with 20 mMHEPES, pH 7.2, 1 mg/ml BSA, 0.1 mM PMSF, and 1 μg/ml leupeptin) at 4° C. for 1.5-2 hours. The tissue sections were then covered with 600-700 μl of 100 pM ^32 P-relaxin with or without excess unlabeled relaxin and other competing agents as specificity control, and incubated at 4° C. for one hour. The slides were washed 3 times for 15-30 minutes each, with binding buffer. […]

rat mesocaecum venules = conditions: local application; cited from earlier work
[2] = obliterative peripheral arterial disease; cited from earlier work
[3] = cited from earlier work

## CNCC(O)c1ccc(O)c(O)c1.O=C(O)C(O)C(O)C(=O)O (centres unmarked) [adrenaline, Adrenaline bitartrate, reference compound]
Rat isolated heart
  transient increases in coronary perfusion pressure: 5-10 mmHg
Rat isolated heart; intact preparations, 4.5 pMol, basal 83±4 mmHg
  left ventricular developed pressure (LVDP): 195±10 mmHg
Rat isolated heart; relaxin: single bolus administration of 830 pMol
  duration of chronotropic effect: short-lasting

## C[C@]12CC[C@H]3[C@@H](CCC4=CC(=O)CC[C@@]43C)[C@@H]1CC[C@@H]2O [testosterone]
[1]
  effect on relaxin binding in the heart: did not cause any changes in relaxin binding in the heart

## porcine relaxin
Rat mesocaecum venules
  effect on venules and vasoconstriction: dilate venules and antagonized the vasoconstrictive effects of norepinephrine and promethazine
[2]
  healing of Raynaud's lesions: beneficial in healing Raynaud's lesions
[3]; injection of up to 50 μg, anesthetized rats
  blood pressure: did not affect blood pressure
[3]; intracerebroventricular injection, urethane anesthetized rat
  arterial pressure: increase arterial pressure
[3]; intravenous injection, urethane anesthetized rats
  arterial pressure: increases arterial pressure
[3]; intravenous or intracerebroventricular injection, urethane anesthetized rat
  heart rate: increase heart rate

## estradiol cyclopentyl propionate [Estrogen]
[1]
  effect on relaxin binding in the heart: had no effect on relaxin binding in the heart
